# Experimental data as given in ChEMBL document CHEMBL6109122 (J Med Chem, 2025).
# Activity calls are given as the source filed them. The calls are words filed in the database; no cut-off is given here.
# Test system: not listed separately
# Assay: Cmax in male ICR mouse at 1 mg/kg, iv measured up to 24 hrs by LC-MS/MS analysis
# Type: ADME, organism-based
# Settings: in vivo
row,SMILES,Cmax [ng/mL]
1,CNC(=O)c1cnc(Nc2ccc(C(=O)N(C)C3CCN(c4ccc5c(c4)C(=O)N(C4CCC(=O)NC4=O)C5=O)CC3)cn2)cc1Nc1cccc(-c2ncc(F)cn2)c1OC (stereo not drawn),1490

# Target: T1, Protein cereblon/Non-receptor tyrosine-protein kinase TYK2 (Homo sapiens, UniProt P29597+Q96SW2)
# Assay: PROTAC activity at CRBN/TYK2 in human Jurkat cells assessed as induction of degradation of TYK2 at 1 nM measured after 10 hrs by Western blot analysis relative to control
# Type: cell-based
# Settings: not given
# T1 sequence (P29597 whole entry, looked up): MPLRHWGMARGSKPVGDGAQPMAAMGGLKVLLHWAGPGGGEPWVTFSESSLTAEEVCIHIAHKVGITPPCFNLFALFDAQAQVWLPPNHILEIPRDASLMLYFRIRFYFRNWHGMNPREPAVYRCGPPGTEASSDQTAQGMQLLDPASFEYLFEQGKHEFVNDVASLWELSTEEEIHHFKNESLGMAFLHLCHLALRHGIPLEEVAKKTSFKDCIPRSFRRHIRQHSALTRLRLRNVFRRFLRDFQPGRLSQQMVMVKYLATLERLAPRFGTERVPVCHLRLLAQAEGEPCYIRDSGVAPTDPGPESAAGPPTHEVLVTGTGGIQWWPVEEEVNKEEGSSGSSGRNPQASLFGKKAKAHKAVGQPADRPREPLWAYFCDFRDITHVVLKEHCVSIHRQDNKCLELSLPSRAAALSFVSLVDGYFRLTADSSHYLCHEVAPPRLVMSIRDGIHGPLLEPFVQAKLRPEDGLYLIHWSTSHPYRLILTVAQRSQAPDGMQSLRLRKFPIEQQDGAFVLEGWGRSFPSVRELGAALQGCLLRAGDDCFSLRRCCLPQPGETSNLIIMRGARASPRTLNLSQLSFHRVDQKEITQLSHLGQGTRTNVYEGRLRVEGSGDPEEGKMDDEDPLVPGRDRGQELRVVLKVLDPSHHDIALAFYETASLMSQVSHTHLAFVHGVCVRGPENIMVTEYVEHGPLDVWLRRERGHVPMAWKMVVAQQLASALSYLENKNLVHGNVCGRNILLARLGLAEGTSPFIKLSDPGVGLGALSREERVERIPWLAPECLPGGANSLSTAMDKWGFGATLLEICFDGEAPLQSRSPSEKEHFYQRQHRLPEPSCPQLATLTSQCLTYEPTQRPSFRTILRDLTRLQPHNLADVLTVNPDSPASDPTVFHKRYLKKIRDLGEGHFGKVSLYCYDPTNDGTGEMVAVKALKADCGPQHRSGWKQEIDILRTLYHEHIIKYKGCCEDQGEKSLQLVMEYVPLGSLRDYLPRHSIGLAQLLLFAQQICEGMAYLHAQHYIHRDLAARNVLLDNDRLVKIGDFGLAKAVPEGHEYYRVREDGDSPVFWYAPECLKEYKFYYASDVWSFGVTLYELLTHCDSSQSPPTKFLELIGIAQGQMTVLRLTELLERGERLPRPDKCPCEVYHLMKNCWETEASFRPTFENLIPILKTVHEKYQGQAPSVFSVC
# T1 sequence (Q96SW2 whole entry, looked up): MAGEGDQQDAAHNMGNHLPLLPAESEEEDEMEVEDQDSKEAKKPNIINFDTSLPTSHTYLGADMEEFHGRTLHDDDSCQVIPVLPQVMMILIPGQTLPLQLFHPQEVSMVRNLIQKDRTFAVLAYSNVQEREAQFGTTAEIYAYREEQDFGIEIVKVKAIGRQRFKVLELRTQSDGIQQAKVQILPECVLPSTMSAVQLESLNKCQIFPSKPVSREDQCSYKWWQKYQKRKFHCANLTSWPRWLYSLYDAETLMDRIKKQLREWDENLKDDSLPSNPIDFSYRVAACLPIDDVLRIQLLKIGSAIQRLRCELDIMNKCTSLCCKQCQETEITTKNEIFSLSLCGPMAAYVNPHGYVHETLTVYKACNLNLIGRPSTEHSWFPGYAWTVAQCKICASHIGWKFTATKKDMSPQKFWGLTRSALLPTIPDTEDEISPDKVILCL
row,SMILES,Activity
1,CNC(=O)c1cnc(Nc2ccc(C(=O)N3CC4(CC(Nc5ccc6c(c5)C(=O)N(C5CCC(=O)NC5=O)C6=O)C4)C3)cn2)cc1Nc1cccc(-c2ncc(F)cn2)c1OC (stereo not drawn),17%
2,CNC(=O)c1cnc(Nc2ccc(C(=O)N3CCC(CN4CCN(c5ccc6c(c5)C(=O)N(C5CCC(=O)NC5=O)C6=O)CC4)CC3)cn2)cc1Nc1cccc(-c2ncc(F)cn2)c1OC (stereo not drawn),2%
3,CNC(=O)c1cnc(Nc2ccc(C(=O)N3CCC4(CC3)CCN(c3ccc5c(c3)C(=O)N(C3CCC(=O)NC3=O)C5=O)CC4)cn2)cc1Nc1cccc(-c2ncc(F)cn2)c1OC (stereo not drawn),inactive
4,CNC(=O)c1cnc(Nc2ccc(C(=O)N3CC(N4CCN(c5ccc6c(c5)C(=O)N(C5CCC(=O)NC5=O)C6=O)CC4)C3)cn2)cc1Nc1cccc(-c2ncc(F)cn2)c1OC (stereo not drawn),44%
5,CNC(=O)c1cnc(Nc2ccc(C(=O)N3CCN(C4CCN(c5ccc6c(c5)C(=O)N(C5CCC(=O)NC5=O)C6=O)CC4)CC3)cn2)cc1Nc1cccc(-c2ncc(F)cn2)c1OC (stereo not drawn),inactive

# Test system: not listed separately
# Assay: Cmax in male ICR mouse at 10 mg/kg, po measured up to 24 hrs by LC-MS/MS analysis
# Type: ADME, organism-based
# Settings: in vivo
row,SMILES,Cmax [ng/mL]
1,CNC(=O)c1cnc(Nc2ccc(C(=O)N(C)C3CCN(c4ccc5c(c4)C(=O)N(C4CCC(=O)NC4=O)C5=O)CC3)cn2)cc1Nc1cccc(-c2ncc(F)cn2)c1OC (stereo not drawn),124

# Test system: not listed separately
# Assay: Metabolic stability in mouse liver microsomes assessed as half life measured up to 120 mins by LC-MS/MS analysis
# Type: ADME, Microsome
# Settings: not given
row,SMILES,half-life [min]
1,CNC(=O)c1cnc(Nc2ccc(C(=O)N(C)C3CCN(c4ccc5c(c4)C(=O)N(C4CCC(=O)NC4=O)C5=O)CC3)cn2)cc1Nc1cccc(-c2ncc(F)cn2)c1OC (stereo not drawn),41

# Target: T1, Protein cereblon/Non-receptor tyrosine-protein kinase TYK2
# Assay: PROTAC activity at CRBN/TYK2 in human Jurkat cells assessed as induction of degradation of TYK2 at 10 nM measured after 10 hrs by Western blot analysis relative to control
# Type: cell-based
# Settings: not given
row,SMILES,Activity [%]
1,CNC(=O)c1cnc(Nc2ccc(C(=O)N3CC4(CC(Nc5ccc6c(c5)C(=O)N(C5CCC(=O)NC5=O)C6=O)C4)C3)cn2)cc1Nc1cccc(-c2ncc(F)cn2)c1OC (stereo not drawn),62
2,CNC(=O)c1cnc(Nc2ccc(C(=O)N3CCC(CN4CCN(c5ccc6c(c5)C(=O)N(C5CCC(=O)NC5=O)C6=O)CC4)CC3)cn2)cc1Nc1cccc(-c2ncc(F)cn2)c1OC (stereo not drawn),78
3,CNC(=O)c1cnc(Nc2ccc(C(=O)N3CCC4(CC3)CCN(c3ccc5c(c3)C(=O)N(C3CCC(=O)NC3=O)C5=O)CC4)cn2)cc1Nc1cccc(-c2ncc(F)cn2)c1OC (stereo not drawn),65
4,CNC(=O)c1cnc(Nc2ccc(C(=O)N3CC(N4CCN(c5ccc6c(c5)C(=O)N(C5CCC(=O)NC5=O)C6=O)CC4)C3)cn2)cc1Nc1cccc(-c2ncc(F)cn2)c1OC (stereo not drawn),77
5,CNC(=O)c1cnc(Nc2ccc(C(=O)N3CCN(C4CCN(c5ccc6c(c5)C(=O)N(C5CCC(=O)NC5=O)C6=O)CC4)CC3)cn2)cc1Nc1cccc(-c2ncc(F)cn2)c1OC (stereo not drawn),17

# Test system: not listed separately
# Assay: AUC (0 to infinity) in male ICR mouse at 10 mg/kg, po measured up to 24 hrs by LC-MS/MS analysis
# Type: ADME, organism-based
# Settings: in vivo
row,SMILES,AUC(0-inf) [ng·h/mL]
1,CNC(=O)c1cnc(Nc2ccc(C(=O)N(C)C3CCN(c4ccc5c(c4)C(=O)N(C4CCC(=O)NC4=O)C5=O)CC3)cn2)cc1Nc1cccc(-c2ncc(F)cn2)c1OC (stereo not drawn),163

# Test system: not listed separately
# Assay: Oral bioavailability in male ICR mouse at 10 mg/kg measured up to 24 hrs by LC-MS/MS analysis
# Type: ADME, organism-based
# Settings: in vivo
row,SMILES,bioavailability [%]
1,CNC(=O)c1cnc(Nc2ccc(C(=O)N(C)C3CCN(c4ccc5c(c4)C(=O)N(C4CCC(=O)NC4=O)C5=O)CC3)cn2)cc1Nc1cccc(-c2ncc(F)cn2)c1OC (stereo not drawn),2.2

# Test system: not listed separately
# Assay: Half life in male ICR mouse at 1 mg/kg, iv measured up to 24 hrs by LC-MS/MS analysis
# Type: ADME, organism-based
# Settings: in vivo
row,SMILES,half-life [min]
1,CNC(=O)c1cnc(Nc2ccc(C(=O)N(C)C3CCN(c4ccc5c(c4)C(=O)N(C4CCC(=O)NC4=O)C5=O)CC3)cn2)cc1Nc1cccc(-c2ncc(F)cn2)c1OC (stereo not drawn),39.6

# Test system: not listed separately
# Assay: Tmax in male ICR mouse at 1 mg/kg, iv measured up to 24 hrs by LC-MS/MS analysis
# Type: ADME, organism-based
# Settings: in vivo
row,SMILES,Tmax [min]
1,CNC(=O)c1cnc(Nc2ccc(C(=O)N(C)C3CCN(c4ccc5c(c4)C(=O)N(C4CCC(=O)NC4=O)C5=O)CC3)cn2)cc1Nc1cccc(-c2ncc(F)cn2)c1OC (stereo not drawn),4.8

# Test system: not listed separately
# Assay: Tmax in male ICR mouse at 10 mg/kg, po measured up to 24 hrs by LC-MS/MS analysis
# Type: ADME, organism-based
# Settings: in vivo
row,SMILES,Tmax [min]
1,CNC(=O)c1cnc(Nc2ccc(C(=O)N(C)C3CCN(c4ccc5c(c4)C(=O)N(C4CCC(=O)NC4=O)C5=O)CC3)cn2)cc1Nc1cccc(-c2ncc(F)cn2)c1OC (stereo not drawn),18

# Test system: not listed separately
# Assay: AUC (0 to infinity) in male ICR mouse at 1 mg/kg, iv measured up to 24 hrs by LC-MS/MS analysis
# Type: ADME, organism-based
# Settings: in vivo
row,SMILES,AUC(0-inf) [ng·h/mL]
1,CNC(=O)c1cnc(Nc2ccc(C(=O)N(C)C3CCN(c4ccc5c(c4)C(=O)N(C4CCC(=O)NC4=O)C5=O)CC3)cn2)cc1Nc1cccc(-c2ncc(F)cn2)c1OC (stereo not drawn),717

# Test system: not listed separately
# Assay: Apparent permeability of the compound in human Caco-2 cells at 10 uM measured up to 120 min by LC-MS/MS analysis
# Type: ADME, cell-based
# Settings: not given
row,SMILES,"Papp at 2 h, 10 µM [×10⁻⁶ cm/s]"
1,CNC(=O)c1cnc(Nc2ccc(C(=O)N(C)C3CCN(c4ccc5c(c4)C(=O)N(C4CCC(=O)NC4=O)C5=O)CC3)cn2)cc1Nc1cccc(-c2ncc(F)cn2)c1OC (stereo not drawn),0.26

# Test system: not listed separately
# Assay: Half life in male ICR mouse at 10 mg/kg, po measured up to 24 hrs by LC-MS/MS analysis
# Type: ADME, organism-based
# Settings: in vivo
row,SMILES,half-life [min]
1,CNC(=O)c1cnc(Nc2ccc(C(=O)N(C)C3CCN(c4ccc5c(c4)C(=O)N(C4CCC(=O)NC4=O)C5=O)CC3)cn2)cc1Nc1cccc(-c2ncc(F)cn2)c1OC (stereo not drawn),72

# Test system: not listed separately
# Assay: AUC (0 to t) in male ICR mouse at 10 mg/kg, po measured up to 24 hrs by LC-MS/MS analysis
# Type: ADME, organism-based
# Settings: in vivo
row,SMILES,AUC(0-t) at 24 h [ng·h/mL]
1,CNC(=O)c1cnc(Nc2ccc(C(=O)N(C)C3CCN(c4ccc5c(c4)C(=O)N(C4CCC(=O)NC4=O)C5=O)CC3)cn2)cc1Nc1cccc(-c2ncc(F)cn2)c1OC (stereo not drawn),159

# Target: T1, Protein cereblon/Non-receptor tyrosine-protein kinase TYK2
# Assay: PROTAC activity at CRBN/TYK2 in human Jurkat cells assessed as induction of degradation of TYK2 at 100 nM measured after 10 hrs by Western blot analysis relative to control
# Type: cell-based
# Settings: not given
row,SMILES,Activity
1,CNC(=O)c1cnc(Nc2ccc(C(=O)N3CC4(CC(Nc5ccc6c(c5)C(=O)N(C5CCC(=O)NC5=O)C6=O)C4)C3)cn2)cc1Nc1cccc(-c2ncc(F)cn2)c1OC (stereo not drawn),48%
2,CNC(=O)c1cnc(Nc2ccc(C(=O)N3CCC(CN4CCN(c5ccc6c(c5)C(=O)N(C5CCC(=O)NC5=O)C6=O)CC4)CC3)cn2)cc1Nc1cccc(-c2ncc(F)cn2)c1OC (stereo not drawn),inactive
3,CNC(=O)c1cnc(Nc2ccc(C(=O)N3CCC4(CC3)CCN(c3ccc5c(c3)C(=O)N(C3CCC(=O)NC3=O)C5=O)CC4)cn2)cc1Nc1cccc(-c2ncc(F)cn2)c1OC (stereo not drawn),13%
4,CNC(=O)c1cnc(Nc2ccc(C(=O)N3CC(N4CCN(c5ccc6c(c5)C(=O)N(C5CCC(=O)NC5=O)C6=O)CC4)C3)cn2)cc1Nc1cccc(-c2ncc(F)cn2)c1OC (stereo not drawn),67%
5,CNC(=O)c1cnc(Nc2ccc(C(=O)N3CCN(C4CCN(c5ccc6c(c5)C(=O)N(C5CCC(=O)NC5=O)C6=O)CC4)CC3)cn2)cc1Nc1cccc(-c2ncc(F)cn2)c1OC (stereo not drawn),7%

# Test system: not listed separately
# Assay: AUC (0 to t) in male ICR mouse at 1 mg/kg, iv measured up to 24 hrs by LC-MS/MS analysis
# Type: ADME, organism-based
# Settings: in vivo
row,SMILES,AUC(0-t) at 24 h [ng·h/mL]
1,CNC(=O)c1cnc(Nc2ccc(C(=O)N(C)C3CCN(c4ccc5c(c4)C(=O)N(C4CCC(=O)NC4=O)C5=O)CC3)cn2)cc1Nc1cccc(-c2ncc(F)cn2)c1OC (stereo not drawn),712
